Values quoted from earlier work as cited in patent US4599352A, “Antineoplastic platinum (IV) complexes and compositions” (priority 1984, dated 1986).

Key:
leukemia L1210 = conditions: cited from earlier work
[1] = test system: sarcoma-180, ascites form; conditions: cited from earlier work

| Structure (SMILES) | Antitumor activity ranking (leukemia L1210) | Antitumor efficacy ranking [1] |
| --- | --- | --- |
| [Cl][Pt]1([Cl])[NH]C2CCCCC2[NH]1 (single isomer, unassigned) [dichloro (1,2-diaminocyclohexane) platinum (II) complex trans (d) isomer] | intermediate activity |  |
| [Cl][Pt]1([Cl])[NH]C2CCCCC2[NH]1 (single isomer, unassigned) [dichloro (1,2-diaminocyclohexane) platinum (II) complex trans (1) isomer] | highest activity |  |
| NC1CCCCC1N.[Cl-].[Cl-].[Pt+2] (stereo not drawn) [Cis-dichloro-cis-1,2-cyclohexanediamine platinum (II)] | least active | more efficacious than the corresponding trans isomers |
